Test results: patent publication US20130131126A1, “DERIVATIVES OF 1,4-DIHYDROPYRIDINE POSSESSING ANTIVIRAL EFFICACY” (JSC Grindeks, priority 2010, published 2013)

Tested on: influenza virus (H3N2)
Test: Antiviral efficacy against influenza virus on MDCK cell line in vitro
Type: cell-based
Conditions: MDCK cells infected with influenza virus (H3N2); compound present from 1 hour after infection until end of culture; over a wide concentration range

With `COC(=O)C1C(C(=O)OCC(=O)[O-])=C(C)NC(C)=C1C(=O)OCC(=O)[O-].[Na+].[Na+]` [disodium 2,6-dimethyl-1,4-dihydropyridine-4-methoxycarbonyl-3,5-bis-(carbonyloxyacetate)] the “antiviral efficacy against influenza” value was “effective against influenza”.
With `CCOC(=O)C1=C(C)NC(C)=C(C(=O)OCC(=O)[O-])C1.[Na+]` [sodium 2,6-dimethyl-3-ethoxycarbonyl-1,4-dihydropyridine-5-carbonyloxyacetate] the “antiviral efficacy against influenza” value was “effective against influenza”.
For `COC(=O)C1=C(C)NC(C)=C(C(=O)OCC(=O)[O-])C1.[Na+]` [sodium 2,6-dimethyl-3-methoxycarbonyl-1,4-dihydropyridine-5-carbonyloxyacetate], the “antiviral efficacy against influenza” value was “effective against influenza”.
